Patent publication US8809350B2, “Purine and pyrimidine CDK inhibitors and their use for the treatment of autoimmune diseases” (priority 2004, dated 2014)
pIC50: −log10 of the molar value. Like-named read-outs stand apart in the source and are kept apart here.

How the values were obtained:
tumour cell panels = experiment: In-house 72 hour cytotoxicity assays on tumour cell panels; type: cell-based
CDK6D3 = CDK6D3 (Homo sapiens, UniProt Q00534); experiment: In-house kinase assay (32P incorporation); type: biochemical; conditions: in-house kinase assays
Method: (§1) Kinase activity was investigated by measuring the incorporation of radioactive phosphate from ATP into appropriate polypeptide substrates. Recombinant protein kinases and kinase complexes were produced or obtained commercially. Assays were performed using 96-well plates and appropriate assay buffers (typically 25 mM β-glycerophosphate, 20 mM MOPS, 5 mM EGTA, 1 mM DTT, 1 mM […], pH 7.4), into which were added 2-4 μg of active enzyme with appropriate substrates. The reactions were initiated by addition of Mg/ATP mix (15 mM MgCl2+100 μM ATP with 30-50 kBq per well of [γ-^32P]-ATP) and mixtures incubated as required at 30° C. Reactions were stopped on ice, followed by filtration through p81 filterplates or GF/C filterplates (Whatman Polyfiltronics, Kent, UK). After washing 3 times with 75 mM aq orthophosphoric acid, plates were dried, scintillant added and incorporated radioactivity measured in a scintillation counter (TopCount, Packard Instruments, Pangbourne, Berks, UK). Compounds for kinase assay were made up as 10 mM stocks in DMSO and diluted into 10% DMSO in assay buffer.

CDK1B = CDK1B (Homo sapiens, UniProt P06493); experiment: In-house kinase assay (32P incorporation); type: biochemical; conditions: in-house kinase assays
Method: as §1

AurB = AurB (Homo sapiens, UniProt Q96GD4); experiment: In-house kinase assay (32P incorporation); type: biochemical; conditions: in-house kinase assays
Method: as §1

AurA = biological target: T1, AurA (Homo sapiens, UniProt O14965); experiment: In-house kinase assay (32P incorporation); type: biochemical; conditions: in-house kinase assays
T1 sequence (O14965 1-403): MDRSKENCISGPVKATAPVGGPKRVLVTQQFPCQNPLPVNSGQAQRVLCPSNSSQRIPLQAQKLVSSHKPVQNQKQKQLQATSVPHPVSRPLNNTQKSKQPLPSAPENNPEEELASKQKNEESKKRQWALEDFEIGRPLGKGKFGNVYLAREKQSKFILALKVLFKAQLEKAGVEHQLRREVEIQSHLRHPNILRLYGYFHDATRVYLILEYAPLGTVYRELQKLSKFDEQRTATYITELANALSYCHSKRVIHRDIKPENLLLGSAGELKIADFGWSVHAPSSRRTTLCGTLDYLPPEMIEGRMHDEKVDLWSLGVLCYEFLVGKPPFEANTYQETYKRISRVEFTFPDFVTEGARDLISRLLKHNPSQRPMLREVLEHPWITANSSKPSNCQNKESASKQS
Method: as §1

CDK7/cyclin H = CDK7/cyclin H (Homo sapiens, UniProt P50613); experiment: CDK 7 and 9 assay (CTD peptide substrate); type: biochemical; conditions: in-house kinase assays; read-out: Average IC50 CDK7H
Method: as §1
The reaction was stopped by placing the plate on ice for 2 min. Avidin (50 μg) was added to each well, and the plate was incubated at room temp for 30 min. The samples were transferred to a 96-well P81 filter plate, and washed (4×200 μL per well) with 75 mM phosphoric acid. Microscint 40 scintillation liquid (50 μL) was added to each well, and the amount of ^32P incorporation for each sample was measured using a Packard Topcount microplate scintillation counter.

CDK4D1 = CDK4D1 (Homo sapiens, UniProt P11802); experiment: In-house kinase assay (32P incorporation); type: biochemical; conditions: in-house kinase assays
Method: as §1

[1] = rounded IC50 value used for ease of calculation in PBMC assays, read-out: IC50 Used

Sequence of CDK1B (P06493 whole entry): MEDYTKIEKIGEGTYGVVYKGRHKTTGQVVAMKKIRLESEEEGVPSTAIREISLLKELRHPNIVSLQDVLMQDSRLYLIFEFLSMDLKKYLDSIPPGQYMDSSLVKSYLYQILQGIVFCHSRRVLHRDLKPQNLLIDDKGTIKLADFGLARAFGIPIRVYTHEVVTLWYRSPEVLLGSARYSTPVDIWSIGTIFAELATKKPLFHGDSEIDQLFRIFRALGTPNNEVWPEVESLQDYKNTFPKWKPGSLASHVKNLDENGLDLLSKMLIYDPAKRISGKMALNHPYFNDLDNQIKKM
Sequence of CDK1B (P14635 whole entry partner): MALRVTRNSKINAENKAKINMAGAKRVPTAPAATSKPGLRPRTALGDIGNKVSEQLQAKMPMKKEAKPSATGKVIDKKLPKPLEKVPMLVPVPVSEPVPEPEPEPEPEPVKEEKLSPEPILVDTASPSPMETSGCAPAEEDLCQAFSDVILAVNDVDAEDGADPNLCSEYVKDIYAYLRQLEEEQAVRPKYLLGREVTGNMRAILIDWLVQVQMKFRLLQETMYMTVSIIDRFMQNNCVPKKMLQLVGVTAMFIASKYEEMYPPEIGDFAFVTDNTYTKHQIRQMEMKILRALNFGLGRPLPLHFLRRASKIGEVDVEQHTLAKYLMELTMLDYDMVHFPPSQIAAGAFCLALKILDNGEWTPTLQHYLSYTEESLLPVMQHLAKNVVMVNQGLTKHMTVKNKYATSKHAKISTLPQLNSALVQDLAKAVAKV
Sequence of AurB (Q96GD4 whole entry): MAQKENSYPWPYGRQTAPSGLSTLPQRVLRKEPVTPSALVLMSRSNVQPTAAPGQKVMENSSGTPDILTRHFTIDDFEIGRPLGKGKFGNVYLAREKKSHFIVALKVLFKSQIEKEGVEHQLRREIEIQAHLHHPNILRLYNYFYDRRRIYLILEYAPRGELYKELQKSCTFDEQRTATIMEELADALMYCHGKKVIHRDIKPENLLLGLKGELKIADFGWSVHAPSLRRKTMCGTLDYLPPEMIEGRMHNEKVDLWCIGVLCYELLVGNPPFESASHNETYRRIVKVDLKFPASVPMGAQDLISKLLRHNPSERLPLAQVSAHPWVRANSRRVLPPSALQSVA
Sequence of CDK7/cyclin H (P50613 whole entry): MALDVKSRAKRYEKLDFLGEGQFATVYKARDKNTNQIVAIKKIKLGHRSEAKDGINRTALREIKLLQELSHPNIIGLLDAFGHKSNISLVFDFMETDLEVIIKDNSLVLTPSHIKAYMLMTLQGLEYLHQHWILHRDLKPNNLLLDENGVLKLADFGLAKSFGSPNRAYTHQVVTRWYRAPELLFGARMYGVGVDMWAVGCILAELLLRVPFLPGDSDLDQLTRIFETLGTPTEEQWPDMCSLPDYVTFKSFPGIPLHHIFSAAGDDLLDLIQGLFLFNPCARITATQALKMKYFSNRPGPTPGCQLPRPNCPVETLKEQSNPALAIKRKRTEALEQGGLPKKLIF
Sequence of CDK7/cyclin H (P51946 whole entry partner): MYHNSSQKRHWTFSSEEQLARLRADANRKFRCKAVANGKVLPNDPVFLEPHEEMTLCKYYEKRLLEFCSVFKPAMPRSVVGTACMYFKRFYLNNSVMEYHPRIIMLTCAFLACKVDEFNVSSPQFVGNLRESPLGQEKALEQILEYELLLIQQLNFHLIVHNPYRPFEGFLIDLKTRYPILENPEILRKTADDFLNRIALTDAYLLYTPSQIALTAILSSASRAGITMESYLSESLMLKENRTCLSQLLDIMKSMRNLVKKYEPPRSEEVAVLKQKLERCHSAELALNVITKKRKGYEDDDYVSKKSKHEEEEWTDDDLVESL
Sequence of CDK6D3 (Q00534 whole entry): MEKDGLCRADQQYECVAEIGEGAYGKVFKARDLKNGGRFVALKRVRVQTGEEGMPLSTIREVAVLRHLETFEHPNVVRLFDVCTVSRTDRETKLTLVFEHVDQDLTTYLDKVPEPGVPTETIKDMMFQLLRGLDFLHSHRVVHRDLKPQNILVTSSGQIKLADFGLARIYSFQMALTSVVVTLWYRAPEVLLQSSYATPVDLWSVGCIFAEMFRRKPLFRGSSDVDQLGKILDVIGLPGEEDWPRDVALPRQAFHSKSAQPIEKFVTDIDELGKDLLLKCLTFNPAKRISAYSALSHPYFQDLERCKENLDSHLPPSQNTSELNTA
Sequence of CDK6D3 (P30281 whole entry partner): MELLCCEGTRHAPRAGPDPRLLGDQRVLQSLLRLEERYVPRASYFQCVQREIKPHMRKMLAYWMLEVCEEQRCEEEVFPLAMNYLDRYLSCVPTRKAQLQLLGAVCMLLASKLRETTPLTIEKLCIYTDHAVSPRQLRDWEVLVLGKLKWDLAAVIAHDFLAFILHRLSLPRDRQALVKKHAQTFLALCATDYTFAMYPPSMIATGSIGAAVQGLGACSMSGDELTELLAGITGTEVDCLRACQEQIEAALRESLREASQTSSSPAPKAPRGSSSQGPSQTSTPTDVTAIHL
Sequence of CDK4D1 (P11802 whole entry): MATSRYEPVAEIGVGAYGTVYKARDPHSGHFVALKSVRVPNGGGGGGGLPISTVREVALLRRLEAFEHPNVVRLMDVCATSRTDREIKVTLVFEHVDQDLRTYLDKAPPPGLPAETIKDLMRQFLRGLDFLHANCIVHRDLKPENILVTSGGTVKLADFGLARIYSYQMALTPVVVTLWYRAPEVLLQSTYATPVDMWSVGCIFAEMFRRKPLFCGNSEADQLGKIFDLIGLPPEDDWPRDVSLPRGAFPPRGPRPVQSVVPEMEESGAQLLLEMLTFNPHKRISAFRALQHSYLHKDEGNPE
Sequence of CDK4D1 (P24385 whole entry partner): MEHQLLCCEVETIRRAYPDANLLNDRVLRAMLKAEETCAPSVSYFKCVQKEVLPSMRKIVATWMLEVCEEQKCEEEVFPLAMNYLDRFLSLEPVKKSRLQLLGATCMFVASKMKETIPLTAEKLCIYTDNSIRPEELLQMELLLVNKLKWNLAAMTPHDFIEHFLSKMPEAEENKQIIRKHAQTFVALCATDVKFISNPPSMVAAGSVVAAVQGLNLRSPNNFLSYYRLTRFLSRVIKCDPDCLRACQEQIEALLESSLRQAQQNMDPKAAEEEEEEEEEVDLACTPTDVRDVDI

pIC50 (CDK6D3) | pIC50 (CDK1B) | pIC50 (AurB) | pIC50 (AurA) | pIC50 (CDK7/cyclin H) | pIC50 (CDK4D1) | SMILES | pIC50 (tumour cell panels; 72 h, read-out: IC50 Average) | pIC50 (tumour cell panels; [1])
6.77 | 5.70 | 6.40 | 6.19 |  |  | CC[C@H](Nc1nc(NCc2cccnc2)c2ncn(C(C)C)c2n1)[C@@H](C)O [Compound 8] | 6.06 | 6.00
 |  |  |  | 6.58 |  | Cc1nc(N)sc1-c1ccnc(Nc2ccc(N3CCOCC3)cc2)n1 [Compound 11] | 6.54 | 6.30
 | 5.99 |  |  |  | 5.99 | CNc1nc(C)c(-c2ccnc(Nc3ccc(N4CCNCC4)cc3)n2)s1 [Compound 12] | 6.45 | 6.30
